Source: patent US9850256B2, “Antibacterial basic biaromatic derivatives with aminoalkoxy substitution” (priority 2014, dated 2017)
≈ marks a conversion by molar mass, not a printed value.

Key:
Test in all cases: Bacterial growth minimal inhibitory concentration (microdilution, cation-adjusted Mueller-Hinton Broth)
P. aeruginosa ATCC 27853 = assay type: cell-based, Pseudomonas aeruginosa; conditions: Pseudomonas aeruginosa, ATCC27853; quinolone-sensitive strain
Procedure, shortened: (§1)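 Broth microdilution in cation-adjusted Mueller-Hinton Broth per CLSI M7-A7; MICs in mg/L. S. aureus A798 is methicillin- and quinolone-resistant, K. pneumoniae T6474 penicillin-, cephalosporin- and quinolone-resistant; E. coli ATCC25922 and P. aeruginosa ATCC 27853 are quinolone-sensitive.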

E. coli ATCC25922 = assay type: cell-based; conditions: Escherichia coli, ATCC25922; quinolone-sensitive strain
Procedure, shortened: as §1

S. aureus A798 = assay type: cell-based, Staphylococcus aureus; conditions: Staphylococcus aureus, A798; multiply-resistant strain (methicillin- and quinolone-resistant)
Procedure, shortened: as §1

K. pneumoniae T6474 = assay type: cell-based, Klebsiella pneumoniae; conditions: Klebsiella pneumoniae, T6474; multiply-resistant strain (penicillin-, cephalosporin- and quinolone-resistant)
Procedure, shortened: as §1

MIC (P. aeruginosa ATCC 27853)	MIC (E. coli ATCC25922)	MIC (S. aureus A798)	MIC (K. pneumoniae T6474)	SMILES
2 µg/mL (≈ 3.57 µM)	2 µg/mL (≈ 3.57 µM)	1 µg/mL (≈ 1.79 µM)	2 µg/mL (≈ 3.57 µM)	CN1CC[C@@H](Oc2cccc(-c3cccc(CNCC[C@H]4CN(c5ccc6c(c5)NC(=O)CS6)C(=O)O4)c3)n2)C1 [Example $168, 6-[(S)-5-(2-{3-[6-((R)-1-methyl-pyrrolidin-3-yloxy)-pyridin-2-yl]-benzylamino}-ethyl)-2-oxo-oxazolidin-3-yl]-4H-benzo[1,4]thiazin-3-one]
2 µg/mL (≈ 3.57 µM)	1 µg/mL (≈ 1.79 µM)	0.25 µg/mL (≈ 0.447 µM)	2 µg/mL (≈ 3.57 µM)	CN1CC[C@@H](Oc2cccc(-c3cccc(CNCC[C@@H]4CN(c5ccc6c(c5)NC(=O)CS6)C(=O)O4)c3)n2)C1 [Example $169, 6-[(R)-5-(2-{3-[6-((R)-1-methyl-pyrrolidin-3-yloxy)-pyridin-2-yl]-benzylamino}-ethyl)-2-oxo-oxazolidin-3-yl]-4H-benzo[1,4]thiazin-3-one]
2 µg/mL (≈ 3.48 µM)	2 µg/mL (≈ 3.48 µM)	0.25 µg/mL (≈ 0.435 µM)	4 µg/mL (≈ 6.96 µM)	COc1cc(O[C@H]2CCN(C)C2)cc(-c2cccc(CNCC[C@H]3CN(c4ccc5c(n4)NC(=O)CO5)C(=O)O3)c2)n1 [Example $170, 6-[(S)-5-(2-{3-[6-methoxy-4-((S)-1-methyl-pyrrolidin-3-yloxy)-pyridin-2-yl]-benzylamino}-ethyl)-2-oxo-oxazolidin-3-yl]-4H-pyrido[3,2-b][1,4]oxazin-3-one]
1 µg/mL (≈ 1.79 µM)	1 µg/mL (≈ 1.79 µM)	0.25 µg/mL (≈ 0.448 µM)	1 µg/mL (≈ 1.79 µM)	CN1CCC[C@@H]1COc1cccc(-c2cccc(CNCC[C@H]3CN(c4ccc5c(n4)NC(=O)CO5)C(=O)O3)c2)n1 [Example $171, 6-[(S)-5-(2-{3-[6-((R)-1-methyl-pyrrolidin-2-ylmethoxy)-pyridin-2-yl]-benzylamino}-ethyl)-2-oxo-oxazolidin-3-yl]-4H-pyrido[3,2-b][1,4]oxazin-3-one]
2 µg/mL (≈ 3.76 µM)	1 µg/mL (≈ 1.88 µM)	2 µg/mL (≈ 3.76 µM)	2 µg/mL (≈ 3.76 µM)	CN1CC(Oc2cnnc(-c3cccc(CNCC[C@H]4CN(c5ccc6c(n5)NC(=O)CO6)C(=O)O4)c3)c2)C1 [Example $174, 6-[(S)-5-(2-{3-[5-(1-methyl-azetidin-3-yloxy)-pyridazin-3-yl]-benzylamino}-ethyl)-2-oxo-oxazolidin-3-yl]-4H-pyrido[3,2-b][1,4]oxazin-3-one]
4 µg/mL (≈ 7.16 µM)	2 µg/mL (≈ 3.58 µM)	0.25 µg/mL (≈ 0.448 µM)	4 µg/mL (≈ 7.16 µM)	C[C@H]1C[C@H](Oc2cccc(-c3cccc(CNCC[C@H]4CN(c5ccc6c(n5)NC(=O)CO6)C(=O)O4)c3)n2)CN1C [Example $175, 6-[(S)-5-(2-{3-[6-((3S,5S)-1,5-dimethyl-pyrrolidin-3-yloxy)-pyridin-2-yl]-benzylamino}-ethyl)-2-oxo-oxazolidin-3-yl]-4H-pyrido[3,2-b][1,4]oxazin-3-one]
2 µg/mL (≈ 3.76 µM)	1 µg/mL (≈ 1.88 µM)	0.5 µg/mL (≈ 0.939 µM)	1 µg/mL (≈ 1.88 µM)	CN1CC(Oc2cncc(-c3cccc(CNCC[C@H]4CN(c5ccc6c(n5)NC(=O)CO6)C(=O)O4)n3)n2)C1 [Example $179, 6-{(S)-5-[2-({6-[6-(1-methyl-azetidin-3-yloxy)-pyrazin-2-yl]-pyridin-2-ylmethyl}-amino)-ethyl]-2-oxo-oxazolidin-3-yl}-4H-pyrido[3,2-b][1,4]oxazin-3-one]
4 µg/mL (≈ 7.52 µM)	16 µg/mL (≈ 30.1 µM)	> 16 µg/mL	> 16 µg/mL	O=C1COc2ccc(N3C[C@H](CCNCc4cccc(-c5cc(O[C@@H]6CCNC6)cnn5)c4)OC3=O)nc2N1 [Example $180, 6-[(S)-2-oxo-5-(2-{3-[5-((R)-pyrrolidin-3-yloxy)-pyridazin-3-yl]-benzylamino}-ethyl)-oxazolidin-3-yl]-4H-pyrido[3,2-b][1,4]oxazin-3-one]
4 µg/mL (≈ 7.52 µM)	16 µg/mL (≈ 30.1 µM)	16 µg/mL (≈ 30.1 µM)	> 16 µg/mL	O=C1COc2ccc(N3C[C@H](CCNCc4cccc(-c5cc(O[C@H]6CCNC6)cnn5)c4)OC3=O)nc2N1 [Example $181, 6-[(S)-2-oxo-5-(2-{3-[5-((S)-pyrrolidin-3-yloxy)-pyridazin-3-yl]-benzylamino}-ethyl)-oxazolidin-3-yl]-4H-pyrido[3,2-b][1,4]oxazin-3-one]
16 µg/mL (≈ 30.1 µM)	16 µg/mL (≈ 30.1 µM)	8 µg/mL (≈ 15 µM)	16 µg/mL (≈ 30.1 µM)	O=C1COc2ccc(N3C[C@H](CCNCc4cccc(-c5cc(OC[C@@H]6CCN6)cnn5)c4)OC3=O)nc2N1 [Example $182, 6-[(S)-5-(2-{3-[5-((S)-1-azetidin-2-ylmethoxy)-pyridazin-3-yl]-benzylamino}-ethyl)-2-oxo-oxazolidin-3-yl]-4H-pyrido[3,2-b][1,4]oxazin-3-one]
1 µg/mL (≈ 1.88 µM)	0.5 µg/mL (≈ 0.941 µM)	0.125 µg/mL (≈ 0.235 µM)	0.5 µg/mL (≈ 0.941 µM)	CN1CC(Oc2cccc(-c3cc(CNCC[C@H]4CN(c5ccc6c(n5)NC(=O)CO6)C(=O)O4)ccn3)n2)C1 [Example $185, 6-[(S)-5-(2-{[6′-(1-methyl-azetidin-3-yloxy)-[2,2′]bipyridinyl-4-ylmethyl]-amino}-ethyl)-2-oxo-oxazolidin-3-yl]-4H-pyrido[3,2-b][1,4]oxazin-3-one]
0.5 µg/mL (≈ 0.941 µM)	0.5 µg/mL (≈ 0.941 µM)	0.25 µg/mL (≈ 0.47 µM)	1 µg/mL (≈ 1.88 µM)	CN1CC(Oc2cccc(-c3ccnc(CNCC[C@H]4CN(c5ccc6c(n5)NC(=O)CO6)C(=O)O4)c3)n2)C1 [Example $186, 6-[(S)-5-(2-{[6-(1-methyl-azetidin-3-yloxy)-[2,4′]bipyridinyl-2′-ylmethyl]-amino}-ethyl)-2-oxo-oxazolidin-3-yl]-4H-pyrido[3,2-b][1,4]oxazin-3-one]
0.5 µg/mL (≈ 0.939 µM)	0.5 µg/mL (≈ 0.939 µM)	0.5 µg/mL (≈ 0.939 µM)	1 µg/mL (≈ 1.88 µM)	CN1CC(Oc2cncc(-c3ccnc(CNCC[C@H]4CN(c5ccc6c(n5)NC(=O)CO6)C(=O)O4)c3)n2)C1 [Example $187, 6-{(S)-5-[2-({4-[6-(1-methyl-azetidin-3-yloxy)-pyrazin-2-yl]-pyridin-2-ylmethyl}-amino)-ethyl]-2-oxo-oxazolidin-3-yl}-4H-pyrido[3,2-b][1,4]oxazin-3-one]
4 µg/mL (≈ 7.52 µM)	1 µg/mL (≈ 1.88 µM)	1 µg/mL (≈ 1.88 µM)	2 µg/mL (≈ 3.76 µM)	CN1CC(Oc2cccc(-c3cccc(CNCC[C@H]4CN(c5ccc6c(n5)NC(=O)CO6)C(=O)O4)n3)n2)C1 [Example $188, 6-[(S)-5-(2-{[6′-(1-methyl-azetidin-3-yloxy)-[2,2′]bipyridinyl-6-ylmethyl]-amino}-ethyl)-2-oxo-oxazolidin-3-yl]-4H-pyrido[3,2-b][1,4]oxazin-3-one]
2 µg/mL (≈ 3.76 µM)	1 µg/mL (≈ 1.88 µM)	0.25 µg/mL (≈ 0.469 µM)	1 µg/mL (≈ 1.88 µM)	CN1CC(Oc2cncc(-c3cc(CNCC[C@H]4CN(c5ccc6c(n5)NC(=O)CO6)C(=O)O4)ccn3)n2)C1 [Example $189, 6-{(S)-5-[2-({2-[6-(1-methyl-azetidin-3-yloxy)-pyrazin-2-yl]-pyridin-4-ylmethyl}-amino)-ethyl]-2-oxo-oxazolidin-3-yl}-4H-pyrido[3,2-b][1,4]oxazin-3-one]
4 µg/mL (≈ 7.51 µM)	2 µg/mL (≈ 3.76 µM)	4 µg/mL (≈ 7.51 µM)	4 µg/mL (≈ 7.51 µM)	CN1CC(Oc2cncc(-c3cncc(CNCC[C@H]4CN(c5ccc6c(n5)NC(=O)CO6)C(=O)O4)c3)n2)C1 [Example $190, 6-{(S)-5-[2-({5-[6-(1-methyl-azetidin-3-yloxy)-pyrazin-2-yl]-pyridin-3-ylmethyl}-amino)-ethyl]-2-oxo-oxazolidin-3-yl}-4H-pyrido[3,2-b][1,4]oxazin-3-one]
